Experimental data published in article PMC8164609 (Environmental Science and Pollution Research International, 2021).
Read-outs that look alike come from different tables or passages of the source.

How the values were obtained:
[1] = target: T1, human ERα (Homo sapiens, UniProt P03372); test: Yeast bioluminescent assay, S. cerevisiae BMAEREluc/ERα (ERE-luc reporter); format: cell-based; conditions: S. cerevisiae BMAEREluc/ERα, about 2.5 h incubation, 5% EtOH vehicle; read-out: EC50 (estrogenic potency, luminescence)
T1 construct: expressed in transfected cells; host or cells: Saccharomyces cerevisiae BMAEREluc/ERα (recombinant yeast, gift of Dr. Johanna Rajasärkkä, University of Helsinki)
T1 sequence (P03372 1-595): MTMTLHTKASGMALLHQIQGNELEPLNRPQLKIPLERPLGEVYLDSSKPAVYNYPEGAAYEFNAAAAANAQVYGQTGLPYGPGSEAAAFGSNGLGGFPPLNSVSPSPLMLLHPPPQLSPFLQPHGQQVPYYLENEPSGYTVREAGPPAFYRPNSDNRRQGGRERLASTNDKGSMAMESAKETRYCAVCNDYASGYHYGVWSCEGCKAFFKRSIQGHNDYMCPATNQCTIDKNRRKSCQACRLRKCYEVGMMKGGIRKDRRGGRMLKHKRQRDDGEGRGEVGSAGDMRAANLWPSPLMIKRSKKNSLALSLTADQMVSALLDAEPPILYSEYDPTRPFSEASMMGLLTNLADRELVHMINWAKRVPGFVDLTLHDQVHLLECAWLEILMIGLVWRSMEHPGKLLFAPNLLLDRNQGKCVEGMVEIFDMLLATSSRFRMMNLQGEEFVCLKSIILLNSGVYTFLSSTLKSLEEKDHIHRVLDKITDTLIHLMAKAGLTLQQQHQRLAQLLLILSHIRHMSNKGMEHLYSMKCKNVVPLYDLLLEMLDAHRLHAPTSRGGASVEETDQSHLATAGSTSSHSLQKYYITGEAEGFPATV
Method: Yeast bioluminescent assay was performed as previously described (Omoruyi and Pohjanvirta [2018]). Two recombinant yeasts, Saccharomyces cerevisiae BMAEREluc/ERα and Saccharomyces cerevisiae BMA64/luc, were kindly provided by Dr. Johanna Rajasärkkä, Department of Food and Environmental Sciences, Faculty of Agriculture and Forestry, University of Helsinki. In the BMAEREluc/ERα, human ERα is expressed. After estrogen-like chemicals bind to ERα, the dimerized receptor binds to a specific DNA sequence called estrogen response element (ERE), in the promotor region of the luc reporter gene, inducing its expression. In BMA64/luc, the luciferase is expressed constitutively, and this strain can be used for the evaluation of cytotoxicity of test compounds. […]
Next, 90 μL of cultured yeasts containing 1:20 luciferin solution (0.042 g luciferin dissolved in 9.75 mL of 0.2 M trisodium citrate, and 5.525 mL of 0.2 M citrate, pH 5) was pipetted into every well of a white 96-well flat-bottom plate, and 10 μL of test compounds in a defined concentration range (diluted in 5% EtOH) were added. […] The luminescence measurement was performed with Luminoskan Ascent microplate luminometer (Thermo Labsystems) using the recommended settings as follows: 1000 ms integration time, single measurement mode, shaking at 60 rpm for 5 s prior to measurement. […]

[2] = tested on: MCF-7 cells; test: LDH cytotoxicity test; conditions: 24 h, up to 10^−4 M
Method: Cytotoxicity was assessed by lactate dehydrogenase (LDH) release. For LDH measurement, Pierce LDH Cytotoxicity Assay Kit (Thermo Scientific, Rockford, USA) was used. MCF-7 cells were seeded at 2.8×10^5 in a transparent 96-well plate, and corner cells of the plate were filled with PBS to prevent the edge effect. SF medium containing DMEM without phenol red, 1% charcoal-stripped FBS, and 4 mM L-glutamine were used for this assay. Plates were incubated for 24 h, and then the cells were treated with test compounds at concentrations ranging from 10^−14 to 10^−4 M or vehicle for another 24 h. On day 3, culture supernatant was collected in a separate 96-well plate, and the assay was continued according to the manufacturer’s instructions. Final absorbance was measured with the microplate reader at 490 and 680 nm. […] Vehicle control was 0.1% EtOH or DMSO. All the exposures were in triplicate, and the experiment was carried out twice.

[3] = Estimated human serum concentration from dietary exposure; conditions: 7.3 mg/kg body weight/day as bolus, 2% absorbed, even distribution, maximum reduced by 50%
Method: Tartrazine has been classified as a xenoestrogen that can bind to ERα in the MCF-7 cell line (Axon et al. [2012]). […] This raises the question whether tartrazine could create any estrogenic effect in humans at its prevailing serum concentrations. Based on the data published by EFSA, the 95th or 97.5th percentile exposure levels for human is 7.3 mg/kg body weight/day (EFSA [2009]).

[4] = target: estrogen receptor; parameters: method as in Axon et al. [2012]; conditions: reporter gene construct in human ERα-positive MCF-7 cells; ref Axon et al. [2012]; read-out: EC50 concentration for estrogen receptor activation; cited from earlier work
[5] = tested on: estrogen signaling cascade; parameters: method as in Datta and Lundin-Schiller [2008]; Axon et al. [2012]; conditions: ref Datta and Lundin-Schiller [2008]; Axon et al. [2012]; cited from earlier work
[6] = tested on: S. cerevisiae BMA64/luc; conditions: values higher than 2 are considered toxic
Method: Yeast bioluminescent assay was performed as previously described (Omoruyi and Pohjanvirta [2018]). Two recombinant yeasts, Saccharomyces cerevisiae BMAEREluc/ERα and Saccharomyces cerevisiae BMA64/luc, were kindly provided by Dr. Johanna Rajasärkkä, Department of Food and Environmental Sciences, Faculty of Agriculture and Forestry, University of Helsinki. In the BMAEREluc/ERα, human ERα is expressed. After estrogen-like chemicals bind to ERα, the dimerized receptor binds to a specific DNA sequence called estrogen response element (ERE), in the promotor region of the luc reporter gene, inducing its expression. In BMA64/luc, the luciferase is expressed constitutively, and this strain can be used for the evaluation of cytotoxicity of test compounds.
Both strains were revived from glycerol stock solution on agar and broth forms of synthetic complete medium supplemented with the required amino acids. After the absence of contamination was confirmed by observing single colonies’ morphology on agar plate, approximately 10 μL of cultured yeasts in broth was transferred to 4 mL of synthetic defined (SD) medium supplemented with the required amino acids. The culture was incubated at 30°C on a shaker incubator (200 rpm). After 24-h incubation, the culture was diluted with SD broth to reach the optimal density (OD600) of 0.4 CFU/mL. Subsequently, the culture was incubated in the same incubation condition until the OD600 reached 0.6–0.7 CFU/mL.
Next, 90 μL of cultured yeasts containing 1:20 luciferin solution (0.042 g luciferin dissolved in 9.75 mL of 0.2 M trisodium citrate, and 5.525 mL of 0.2 M citrate, pH 5) was pipetted into every well of a white 96-well flat-bottom plate, and 10 μL of test compounds in a defined concentration range (diluted in 5% EtOH) were added. The plate was incubated at 30°C for approximately 2.5 h, and was then shaken briefly. The luminescence measurement was performed with Luminoskan Ascent microplate luminometer (Thermo Labsystems) using the recommended settings as follows: 1000 ms integration time, single measurement mode, shaking at 60 rpm for 5 s prior to measurement.
Each concentration of test compounds and controls in the assay was tested in triplicate, and the experiment was performed twice.
* The Correction Factor is the luminescence of the strain BMA64/luc with blank solvent divided by the luminescence of the control strain with the sample. Values higher than 2 are considered toxic (Leskinen et al. 2005).
* The Correction Factor is the luminescence of the strain BMA64/luc with blank solvent divided by the luminescence of the control strain with the sample. Values higher than 2 are considered toxic (Leskinen et al. 2005). […] Each experiment was performed in triplicate.

[7] = tested on: human lymphocytes; conditions: MTT, cited from earlier work

## O=C([O-])C1=NN(c2ccc(S(=O)(=O)[O-])cc2)C(=O)C1N=Nc1ccc(S(=O)(=O)[O-])cc1.[Na+].[Na+].[Na+] (stereo not shown) [tartrazine]
[1]
  EC50: 0.0001 µM
[2]
  maximum level of cytotoxicity (LDH release): less than 2.5%
[3]
  estimated serum concentration: 137 nM
[4]
  EC50: 0.16 µM
[5]
  concentration range of estrogenic effect in vitro: 1 to 10000 pM
[6]; 5% DMSO, 10^−4 M
  Correction Factor: 3.05±0.70
[6]; 5% DMSO, 10^−6 M
  Correction Factor: 2.77±0.44
[6]; 5% DMSO, 10^−8 M
  Correction Factor: 2.05±0.32
[6]; 5% DMSO, 10^−10 M
  Correction Factor: 2.60±0.54
[6]; 5% DMSO, 10^−12 M
  Correction Factor: 3.09±0.57
[6]; 5% DMSO, 10^−14 M
  Correction Factor: 3.43±0.66
[6]; 5% ethanol, 10^−4 M
  Correction Factor: 0.99±0.08
[6]; 5% ethanol, 10^−6 M
  Correction Factor: 0.94±0.12
[6]; 5% ethanol, 10^−8 M
  Correction Factor: 0.95±0.09
[6]; 5% ethanol, 10^−10 M
  Correction Factor: 1.36±0.30
[6]; 5% ethanol, 10^−12 M
  Correction Factor: 1.10±0.26
[6]; 5% ethanol, 10^−14 M
  Correction Factor: 1.14±0.23
[7]; 0.25–64 mM, ref Soares et al. [2015]
  cytotoxicity to human lymphocytes: not cytotoxic
[7]; 4 and 8 mM, ref Mpountoukas et al. [2010]
  cytotoxicity to human lymphocytes: cytotoxic
